Measurements taken from ChEMBL document CHEMBL5576135, “Discovery of Indolo[3,2-c]isoquinoline Derivatives as Novel Top1/2 Dual Inhibitors with Orally Efficacious Antitumor Activity and Low Toxicity” (J Med Chem, 2024).
The source made the active and inactive calls. The rule behind the calls is not given here.

Assays:
MDA-MB-231 = experiment: Antiproliferative activity against human MDA-MB-231 cells assessed as inhibition of cell growth incubated for 96 hrs by MTT based ELISA; format: functional; details: MDA-MB-231, 96 h
PC-3 = experiment: Antiproliferative activity against human PC-3 cells assessed as inhibition of cell growth incubated for 96 hrs by MTT based ELISA; format: functional; details: PC-3, 96 h
NCI-H2228 = experiment: Antiproliferative activity against human NCI-H2228 cells assessed as inhibition of cell growth incubated for 96 hrs by MTT based ELISA; format: functional; details: NCI-H2228, 96 h
Huh-7 = experiment: Antiproliferative activity against human Huh-7 cells assessed as inhibition of cell growth incubated for 96 hrs by MTT based ELISA; format: functional; details: Huh-7, 96 h
PC-9 = experiment: Antiproliferative activity against human PC-9 cells assessed as inhibition of cell growth incubated for 96 hrs by MTT based ELISA; format: functional; details: PC-9, 96 h
DU-145 = experiment: Antiproliferative activity against human DU-145 cells assessed as inhibition of cell growth incubated for 96 hrs by MTT based ELISA; format: functional; details: DU-145, 96 h
[1] = Tmax in ICR mouse at 10 mg/kg,po measured upto 24 hrs by LC-MS/MS analysis; format: ADME, organism-based; details: in vivo
[2] = MRT (0 to t) in ICR mouse at 10 mg/kg,po measured upto 24 hrs by LC-MS/MS analysis; format: ADME, organism-based; details: in vivo
[3] = MRT (0 to infinity) in ICR mouse at 10 mg/kg,po measured upto 24 hrs by LC-MS/MS analysis; format: ADME, organism-based; details: in vivo
[4] = AUC (0 to t) in ICR mouse at 10 mg/kg,po measured upto 24 hrs by LC-MS/MS analysis; format: ADME, organism-based; details: in vivo
[5] = AUC (0 to infinity) in ICR mouse at 10 mg/kg,po measured upto 24 hrs by LC-MS/MS analysis; format: ADME, organism-based; details: in vivo
[6] = biological target: T1, DNA topoisomerase 1 (Homo sapiens) (UniProt P11387); experiment: Inhibition of Topoisomerase I (unknown origin) using pBR322 DNA as substrate at 200 uM incubated for 15 mins by EtBr staining based agarose gel electrophoresis method relative to control
T1 sequence (whole entry): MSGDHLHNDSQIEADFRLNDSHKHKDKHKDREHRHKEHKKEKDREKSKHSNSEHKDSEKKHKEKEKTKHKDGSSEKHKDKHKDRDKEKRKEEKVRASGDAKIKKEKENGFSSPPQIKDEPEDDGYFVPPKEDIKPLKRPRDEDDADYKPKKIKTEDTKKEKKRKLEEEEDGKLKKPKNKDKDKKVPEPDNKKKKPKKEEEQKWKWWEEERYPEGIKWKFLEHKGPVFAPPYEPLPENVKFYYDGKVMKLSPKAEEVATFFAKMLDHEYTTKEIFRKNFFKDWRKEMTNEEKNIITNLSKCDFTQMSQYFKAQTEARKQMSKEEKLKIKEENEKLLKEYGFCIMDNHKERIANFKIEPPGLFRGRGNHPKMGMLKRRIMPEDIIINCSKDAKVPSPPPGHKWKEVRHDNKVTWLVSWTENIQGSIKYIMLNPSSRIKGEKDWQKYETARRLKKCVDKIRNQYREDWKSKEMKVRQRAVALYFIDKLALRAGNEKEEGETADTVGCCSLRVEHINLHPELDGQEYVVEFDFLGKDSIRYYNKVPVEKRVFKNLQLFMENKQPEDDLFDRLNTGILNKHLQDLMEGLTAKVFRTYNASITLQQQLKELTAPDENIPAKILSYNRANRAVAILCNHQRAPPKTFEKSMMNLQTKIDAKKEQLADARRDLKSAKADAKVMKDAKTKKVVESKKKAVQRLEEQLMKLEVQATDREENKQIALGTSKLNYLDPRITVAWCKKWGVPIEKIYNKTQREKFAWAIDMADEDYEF

[7] = biological target: DNA topoisomerase 2-alpha (Homo sapiens) (UniProt P11388); experiment: Inhibition of Topoisomerase 2 (unknown origin) using pBR322 DNA as substrate at 100 uM incubated for 15 mins by EtBr staining based agarose gel electrophoresis method relative to control
NCI-H446 [8] = experiment: Induction of DNA damage in human NCI-H446 cells assessed as increase in DNA fragments at 8 uM incubated for 48 hrs by comet assay; format: functional, cell-based
NCI-H446 [9] = experiment: Induction of DNA damage in human NCI-H446 cells assessed as tail DNA at 8 uM incubated for 48 hrs by comet assay relative to control; format: functional
NCI-H446 [10] = experiment: Induction of cell cycle arrest in human NCI-H446 cells assessed as accumulation of cells at G2/M phase at 1 to 2 uM incubated for 48 hrs by propidium iodide/RNase A staining based flow cytometry; format: functional; details: dose 1-2 µM
NCI-H446 [11] = experiment: Induction of cell cycle arrest in human NCI-H446 cells assessed as accumulation of cells at S phase at 2 uM incubated for 48 hrs by propidium iodide/RNase A staining based flow cytometry relative to control; format: functional
NCI-H446 [12] = experiment: Induction of cell cycle arrest in human NCI-H446 cells assessed as accumulation of cells at G2/M phase at 2 uM incubated for 48 hrs by propidium iodide/RNase A staining based flow cytometry relative to control; format: functional
NCI-H446 [13] = experiment: Induction of apoptosis in human NCI-H446 cells at 8 uM incubated for 48 hrs by Annexin V-FITC/PI staining based flow cytometry relative to control; format: functional
NCI-H446 [14] = experiment: Inhibition of colony formation in human NCI-H446 cells at 2 uM incubated for 24 hrs by crystal violet staining based analysis relative to control; format: functional
[15] = Toxicity in Kunming mouse assessed as change in body weight at 100 mg/kg,po administration for 2 weeks; format: organism-based; details: in vivo, 336 h
[16] = Toxicity in Kunming mouse assessed as change in serum ALT level at 100 mg/kg,po administration for 2 weeks; format: organism-based; details: in vivo, 336 h
[17] = Toxicity in Kunming mouse assessed as morphological change in heart at 100 mg/kg,po administration for 2 weeks; format: organism-based; details: in vivo, 336 h
[18] = Toxicity in Kunming mouse assessed as morphological change in lung at 100 mg/kg,po administration for 2 weeks; format: organism-based; details: in vivo, 336 h
[19] = Toxicity in Kunming mouse assessed as morphological change in liver at 100 mg/kg,po administration for 2 weeks; format: organism-based; details: in vivo, 336 h
[20] = Toxicity in Kunming mouse assessed as morphological change in kidney at 100 mg/kg,po administration for 2 weeks; format: organism-based; details: in vivo, 336 h
[21] = Toxicity in Kunming mouse assessed as change in organ coefficient of lung at 100 mg/kg,po administration for 2 weeks; format: organism-based; details: in vivo, 336 h
[22] = Toxicity in Kunming mouse assessed as change in organ coefficient of liver at 100 mg/kg,po administration for 2 weeks; format: organism-based; details: in vivo, 336 h
[23] = Toxicity in Kunming mouse assessed as change in organ coefficient of kidney at 100 mg/kg,po administration for 2 weeks; format: organism-based; details: in vivo, 336 h
[24] = biological target: DNA topoisomerase 2-alpha (Homo sapiens) (UniProt P11388); experiment: Inhibition of Topoisomerase 2 (unknown origin) using pBR322 DNA as substrate at 0.5 uM incubated for 15 mins by EtBr staining based agarose gel electrophoresis method

Chain of DNA topoisomerase 2-alpha (Homo sapiens) (P11388 whole entry, the tested form may be a part): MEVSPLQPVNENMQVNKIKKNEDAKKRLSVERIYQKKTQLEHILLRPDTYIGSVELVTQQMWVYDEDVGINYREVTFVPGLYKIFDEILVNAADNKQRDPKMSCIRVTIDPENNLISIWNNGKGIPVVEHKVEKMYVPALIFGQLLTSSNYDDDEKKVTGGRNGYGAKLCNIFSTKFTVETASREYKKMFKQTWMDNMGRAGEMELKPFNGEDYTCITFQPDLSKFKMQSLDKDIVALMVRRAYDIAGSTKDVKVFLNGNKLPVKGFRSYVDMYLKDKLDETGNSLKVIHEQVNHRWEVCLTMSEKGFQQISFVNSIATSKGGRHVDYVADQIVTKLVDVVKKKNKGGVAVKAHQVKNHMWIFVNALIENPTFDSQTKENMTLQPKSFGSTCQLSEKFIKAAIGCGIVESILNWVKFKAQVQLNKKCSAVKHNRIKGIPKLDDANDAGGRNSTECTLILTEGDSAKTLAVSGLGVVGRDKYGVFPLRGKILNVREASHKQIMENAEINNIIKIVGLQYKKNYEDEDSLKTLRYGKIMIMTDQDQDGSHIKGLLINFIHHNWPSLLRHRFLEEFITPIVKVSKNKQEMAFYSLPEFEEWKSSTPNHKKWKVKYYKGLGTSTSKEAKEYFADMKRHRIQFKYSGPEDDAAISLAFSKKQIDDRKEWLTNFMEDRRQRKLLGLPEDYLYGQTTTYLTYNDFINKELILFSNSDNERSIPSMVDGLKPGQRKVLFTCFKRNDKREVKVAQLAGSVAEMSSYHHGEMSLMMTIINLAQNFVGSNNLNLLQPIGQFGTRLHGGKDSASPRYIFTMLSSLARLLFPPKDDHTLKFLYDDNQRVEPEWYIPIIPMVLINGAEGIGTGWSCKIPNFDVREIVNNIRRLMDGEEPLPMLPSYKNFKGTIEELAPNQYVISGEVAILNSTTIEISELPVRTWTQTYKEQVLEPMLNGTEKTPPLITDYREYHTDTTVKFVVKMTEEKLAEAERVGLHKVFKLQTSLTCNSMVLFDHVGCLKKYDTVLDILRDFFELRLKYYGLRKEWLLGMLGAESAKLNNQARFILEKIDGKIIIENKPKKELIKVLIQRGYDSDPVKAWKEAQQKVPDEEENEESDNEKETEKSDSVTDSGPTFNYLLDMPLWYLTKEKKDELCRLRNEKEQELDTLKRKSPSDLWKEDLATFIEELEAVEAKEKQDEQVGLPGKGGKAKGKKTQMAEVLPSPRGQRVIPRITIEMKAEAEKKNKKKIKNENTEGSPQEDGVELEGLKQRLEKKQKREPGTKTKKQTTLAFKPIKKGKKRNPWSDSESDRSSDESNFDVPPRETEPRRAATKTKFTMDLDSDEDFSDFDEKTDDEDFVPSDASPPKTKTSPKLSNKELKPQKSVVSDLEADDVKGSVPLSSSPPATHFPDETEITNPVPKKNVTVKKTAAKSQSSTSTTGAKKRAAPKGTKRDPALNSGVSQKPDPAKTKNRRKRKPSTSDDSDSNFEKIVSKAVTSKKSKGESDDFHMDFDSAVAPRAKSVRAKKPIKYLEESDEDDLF

Structure (SMILES) | IC50 (MDA-MB-231) [µM] | IC50 (PC-3) [µM] | IC50 (NCI-H2228) [µM] | IC50 (Huh-7) [µM] | IC50 (PC-9) [µM] | IC50 (DU-145) [µM] | Tmax [1] [h] | MRT last at 24 h [2] [h] | MRT inf [3] [h] | AUC(0-t) at 24 h [4] [ng·h/mL] | AUC(0-inf) [5] [ng·h/mL] | inhibition [6] [%] | inhibition [7] [%] | Activity (NCI-H446 [8]) | Activity (NCI-H446 [9]) [%] | Activity (NCI-H446 [10]) | Activity (NCI-H446 [11]) [%] | Activity (NCI-H446 [12]) [%] | Activity (NCI-H446 [13]) [%] | inhibition at 2 µM (NCI-H446 [14]) [%] | further results
COc1ccc2c(c1)c1ncc3ccccc3c1n2CCCC(=O)NO | 0.55 | 0.97 | 2.34 | 2.5 | 1.26 | 0.86 | 1 | 1.35 | 1.72 | 244 | 267 | > 95 | > 95 | Active | 54.8 | Active | 60.3 | 60.3 | 77.5 | > 90 | Activity [15]: Non-Toxic; Activity [16]: Non-Toxic; Activity [17]: Non-Toxic; Activity [18]: Non-Toxic; Activity [19]: Non-Toxic; Activity [20]: Non-Toxic; Activity [21]: Non-Toxic; Activity [22]: Non-Toxic; Activity [23]: Non-Toxic; inhibition [24]: Active
CN(C)CCCn1c2cc3c(cc2c2ncc4ccccc4c21)OCO3 | 0.29 | 0.4 | 0.88 | 0.83 | 0.76 | 0.52 | 2 | 5 | 5 | 2040 | 2040 | > 95 | > 95 | Active | 65.4 | Active | 61.1 | 61.1 | 95.3 | > 90 | Activity [15]: Non-Toxic; Activity [16]: Non-Toxic; Activity [17]: Non-Toxic; Activity [18]: Non-Toxic; Activity [19]: Non-Toxic; Activity [20]: Non-Toxic; Activity [21]: Non-Toxic; Activity [22]: Non-Toxic; Activity [23]: Non-Toxic; inhibition [24]: Active
